Experimental data: patent US11490644B2, “Co-Q10, krill oil and vitamin D” (RB HEALTH (US) LLC, priority 2015, dated 2022)
Read-outs that look alike come from different tables or passages of the source. Values belong to the molecule of their own block, whether it stands above or below them.

How the values were obtained:
Assay type in all cases: physicochemical
[1] = Antioxidant study: influence of antioxidant on Co-Q10 stability in krill oil and Vitamin D; conditions: for Amount of Co-Q10: in krill oil and Vitamin D with the antioxidant
Experimental: (§1) Several antioxidants were evaluated for their ability to stabilize Co-Q10 in krill oil and Vitamin D. The results are summarized in Table 2.

[2] = Stability of Co-Q10 and Co-QH in krill oil and Vitamin D mixtures, accelerated conditions; conditions: over the 12-week period; 40° C., 75% relative humidity
Experimental: Two formulations comprising Co-Q10 (Study I) and Co-QH (Study II) were evaluated for stability in krill oil and Vitamin D mixtures. The compositions were subjected to accelerated conditions (40° C., 75% relative humidity for up to 12 weeks), and the amounts of Co-Q10, Co-QH, and ubichromenol were evaluated at several time points.

[3] = Influence of chelating agent on Co-Q10 stability; conditions: with the chelating agent
[4] = Influence of antioxidant dosing on Co-Q10 stability
Experimental: as §1

[5] = antioxidant medium dose, 1 week
[6] = antioxidant medium dose, 2 weeks
[7] = antioxidant medium dose, Initial

SMILES: NC(N)=S [Thiourea]
- Ability to stabilize Co-Q10 in krill oil and Vitamin D (in words) ([1]; Table 2): degrades rapidly

SMILES: COc1c(O)c(C)c(C/C=C(\C)CC/C=C(\C)CC/C=C(\C)CC/C=C(\C)CC/C=C(\C)CC/C=C(\C)CC/C=C(\C)CC/C=C(\C)CC/C=C(\C)CCC=C(C)C)c(O)c1OC [Co-QH, ubiquinol]
- Stability in krill oil and Vitamin D (in words) [2]: stable

SMILES: CC(=O)OO [Peracetic acid (PAA), Peracetic acid]
- Amount of Co-Q10 ([3]; 1 week): 10 mg
- Amount of Co-Q10 ([3]; 2 weeks): 0 mg
- Amount of Co-Q10 ([3]; Initial): 137 mg

- Stability in krill oil and Vitamin D (in words) [2]: unstable
SMILES: COC1=C(OC)C(=O)C(C/C=C(\C)CC/C=C(\C)CC/C=C(\C)CC/C=C(\C)CC/C=C(\C)CC/C=C(\C)CC/C=C(\C)CC/C=C(\C)CC/C=C(\C)CCC=C(C)C)=C(C)C1=O [Co-Q10, Coenzyme Q10]

- Amount of Co-Q10 ([4]; antioxidant high dose, 1 week): 100 mg
- Amount of Co-Q10 ([4]; antioxidant high dose, 2 weeks): 100 mg
- Amount of Co-Q10 ([4]; antioxidant high dose, Initial): 109 mg
- Amount of Co-Q10 ([4]; antioxidant low dose, 1 week): 91 mg
- Amount of Co-Q10 ([4]; antioxidant low dose, 2 weeks): 71 mg
- Amount of Co-Q10 ([4]; antioxidant low dose, Initial): 137 mg
- Amount of Co-Q10 [4, 5]: 136 mg
- Amount of Co-Q10 [4, 6]: 138 mg
- Amount of Co-Q10 [4, 7]: 145 mg
- Amount of Co-Q10 ([1]; 1 week): 133 mg
- Amount of Co-Q10 ([1]; 2 weeks): 129 mg
- Amount of Co-Q10 ([1]; Initial): 139 mg
SMILES: O=C1O[C@H]([C@@H](O)CO)C(O)=C1O [Ascorbic Acid]

- Amount of Co-Q10 ([4]; antioxidant high dose, 1 week): 43 mg
- Amount of Co-Q10 ([4]; antioxidant high dose, 2 weeks): 26 mg
- Amount of Co-Q10 ([4]; antioxidant high dose, Initial): 146 mg
- Amount of Co-Q10 ([4]; antioxidant low dose, 1 week): 16 mg
- Amount of Co-Q10 ([4]; antioxidant low dose, 2 weeks): 14 mg
- Amount of Co-Q10 ([4]; antioxidant low dose, Initial): 142 mg
- Amount of Co-Q10 [4, 5]: 23 mg
- Amount of Co-Q10 [4, 6]: 16 mg
- Amount of Co-Q10 [4, 7]: 146 mg
- Ability to stabilize Co-Q10 in krill oil and Vitamin D (in words) [1]: degrades rapidly
- Amount of Co-Q10 ([1]; 1 week): 48 mg
- Amount of Co-Q10 ([1]; 2 weeks): 25 mg
- Amount of Co-Q10 ([1]; Initial): 142 mg
SMILES: C=CCc1ccc(O)c(OC)c1 [Eugenol]

- Amount of Co-Q10 ([3]; 1 week): 10 mg
- Amount of Co-Q10 ([3]; 2 weeks): 0 mg
- Amount of Co-Q10 ([3]; Initial): 125 mg
SMILES: O=C(O)CN(CCN(CC(=O)O)CC(=O)O)CC(=O)O [EDTA]
